According to a melting point compilation (Tetko et al.; mined from patent text by program, amines drawn as free bases though some values may be those of a salt):

Question: With Cc1cc(N(C)Cc2oc(-c3ccc(C(F)(F)F)cc3)nc2C)ccc1OCC(=O)O as the compound, how does the melting point read?
Answer: 156 to 157 °C

Question: Which melting point does the source give for COc1cccc(OC)c1C(=O)Nc1cc(C(C)(C)C)n[nH]1 here?
Answer: 176 to 178 °C

Question: For Cc1c(C)c(N2CCN(c3ccc(CN)cc3)CC2)c(C)c2c1OC(C)(C)C2, which melting point is on record?
Answer: 156 to 158 °C

Question: Which melting point does the source give for COc1ccc(F)c(F)c1C(=O)c1cnc(Cl)nc1Cl here?
Answer: 137 to 139 °C

Question: With CC1(c2ccc3cc(Br)ccc3c2)OCCO1 as the compound, how does the melting point read?
Answer: 80 to 82 °C

Question: For CC(O)c1ccc2occ(C#N)c(=O)c2c1 (stereo not given), which melting point is on record?
Answer: 147 to 148 °C

Question: With CSCCn1nc(O)c2[nH]c3cc(Cl)ccc3c(=O)c2c1=O as the compound, how does the melting point read?
Answer: 275 to 277 °C

Question: Which melting point does the source give for Cc1ccc(Oc2ccc(-n3cncn3)cc2)c(O)c1 here?
Answer: 107 to 109 °C

Question: For CSC1c2ccccc2COc2ccc(C(=O)O)cc21 (stereo not given), which melting point is on record?
Answer: 198 to 200 °C

Question: Which melting point does the source give for Cc1cc(O)ccc1-c1cc2cc(O)ccc2o1 here?
Answer: 167 to 169 °C

Question: For O=CNc1cccc(C(=O)Nc2ccc(-c3ccccc3)cc2)c1O, which melting point is on record?
Answer: 190 °C

Question: Which melting point does the source give for COCC(=O)Oc1cc(-n2c(=O)cc(C(F)(F)F)n(C)c2=O)c(F)cc1Cl here?
Answer: 101 to 103 °C

Question: For COc1cc(Cl)c(/C(=N\O)c2ccccc2F)cc1Cl, which melting point is on record?
Answer: 188 °C

Question: With O=C(O)c1c2n(c3cc(N4CCNCC4)c(F)cc3c1=O)C(c1ccccc1)S2 (stereo not given) as the compound, how does the melting point read?
Answer: 200 to 205 °C

Question: Which melting point does the source give for CC(C)(C)OC(=O)N(Cc1ccc(C(=O)NCC(=N)NO)cc1)c1ccc(C(C)(C)C)cc1 here?
Answer: 154 to 156 °C

Question: With O=C(O)c1cn(C2CCCCC2)c2c(F)c(F)c(F)cc2c1=O as the compound, how does the melting point read?
Answer: 261 to 264 °C

Question: Which melting point does the source give for COP(=O)(c1ccccc1)c1ccc2c(c1)C(NC(=NC#N)Nc1ccc(Cl)cc1)C(O)C(C)(C)O2 (stereo not given) here?
Answer: 150 °C

Question: Which melting point does the source give for COc1cccc2c(=O)n3nc(C(N)=O)cc3[nH]c12 here?
Answer: 265 to 270 °C

Question: Which melting point does the source give for CS(=O)(=O)Nc1cc(C(c2cc(F)ccc2F)S(=O)(=O)c2ccc(Cl)cc2)c(F)cn1 (stereo not given) here?
Answer: 217 to 219 °C

Question: With CCOC(=O)C(C)(C)c1ccc(OCc2ccccc2)cc1 as the compound, how does the melting point read?
Answer: 54 to 55 °C

Question: With c1ccc2c(c1)CCc1cccnc1C2C1CCNCC1 (stereo not given) as the compound, how does the melting point read?
Answer: 111 to 114 °C

Question: For Cc1ccccc1Nc1nc(O)c2sccc2n1, which melting point is on record?
Answer: 243 to 245 °C

Question: For CONC(=O)C(C)c1ccc2cc(OCc3ccc4ccccc4n3)ccc2c1 (stereo not given), which melting point is on record?
Answer: 162 to 164 °C

Question: Which melting point does the source give for O=C(OCc1ccccc1)N1CCc2ccccc2C12CCC(C(=O)O)(C(=O)O)CC2 here?
Answer: 199 to 200 °C

Question: With COc1ccc(C(=O)Nc2ccc(OC)cc2NC(=O)c2ccc(OC)cc2)cc1 as the compound, how does the melting point read?
Answer: 238 to 239 °C

Question: Which melting point does the source give for COc1ccc(Nc2ccccc2)c2ccccc12 here?
Answer: 108 to 110 °C

Question: With CCOC(=O)c1nc2sc(C(=O)OCC)c(C)c2c(=O)[nH]1 as the compound, how does the melting point read?
Answer: 237 to 238 °C

Question: For COC(=O)c1cc(C)c(C(OC(=O)C(C)NS(=O)(=O)c2ccc(Cl)cc2)c2cc(-n3ccnc3)ccc2C)c(C)c1 (stereo not given), which melting point is on record?
Answer: 126 to 128 °C

Question: With CCN1CCCC1CNC(=O)c1cc(Cl)c(O)cc1OC (stereo not given) as the compound, how does the melting point read?
Answer: 185 to 186 °C

Question: For CCC(=O)c1ccc2c(c1)OC(c1ccccc1)(c1ccccc1)O2, which melting point is on record?
Answer: 69 to 70.5 °C

Question: With O=C(c1cccs1)c1cnn2c(-c3cccc(NCc4ccco4)c3)ccnc12 as the compound, how does the melting point read?
Answer: 124 to 128 °C

Question: For Cc1cc(-c2nc3c(C)ccnn3c2-c2ccnc(NC(=O)c3ccc(F)cc3)c2)ccc1F, which melting point is on record?
Answer: 243 to 244 °C

Question: Which melting point does the source give for NC(=O)c1ccc(Br)c(OC(F)F)c1Br here?
Answer: 186 °C

Question: Which melting point does the source give for CCCC(=O)c1ccc(C(CC(=O)Nc2cc(C(N)=O)ccc2C(C)(C)C)CC(C)C)c(OC)c1 (stereo not given) here?
Answer: 189 to 190 °C

Question: For CCCC[C@H](NC(=O)[C@H](CC(C)C)NC(=O)c1cc(F)ccc1F)C(=O)CSCc1ccco1, which melting point is on record?
Answer: 102 °C

Question: With CC(=O)NCC(NC(C)=O)c1ccccc1 (stereo not given) as the compound, how does the melting point read?
Answer: 155 to 156 °C

Question: Which melting point does the source give for Oc1ccccc1-c1cc(-c2ccc(F)c(F)c2)cc(-c2ccco2)n1 here?
Answer: 147 to 148 °C

Question: Which melting point does the source give for OC1CCCc2nc3cc(Cl)ccc3c(NCc3ccccc3)c21 (stereo not given) here?
Answer: 163 °C

Question: Which melting point does the source give for O=C(CI)Oc1cccc2c1C(=O)c1cn3c(c1C2=O)Cc1ccccc1C3 here?
Answer: > 260 °C

Question: With Oc1ccccc1-c1nc(-c2ccccc2O)n(Cc2cccnc2)n1 as the compound, how does the melting point read?
Answer: 174 to 176 °C

Question: For CCSc1cc(C(C)C)ccc1N(CC)c1nc(C)cc(C)n1, which melting point is on record?
Answer: 128 to 130 °C

Question: Which melting point does the source give for CCCCCCCCCCc1csc2c1sc1c3scc(CCCCCCCCCC)c3sc21 here?
Answer: 111 to 113 °C

Question: With CCOC(=O)CN1Cc2ccccc2CC(N)C1=O (stereo not given) as the compound, how does the melting point read?
Answer: 71 to 73 °C

Question: With Cc1nccn1-c1ccc(O)cc1 as the compound, how does the melting point read?
Answer: 205 to 208 °C

Question: For O=C(NCCCCCn1cncn1)c1ccc(Cl)s1, which melting point is on record?
Answer: 79 to 81 °C

Question: With O=C(O)C(Sc1ccccc1)c1ccc(Oc2ccc(Cl)cc2)cc1 (stereo not given) as the compound, how does the melting point read?
Answer: 156 to 158 °C

Question: Which melting point does the source give for COc1cc(C(C)=O)ccc1OCCN1C2CCC1CC(c1n[nH]c3cc(F)ccc13)C2 (stereo not given) here?
Answer: 151 to 152 °C

Question: Which melting point does the source give for CCn1cc(CCC(=O)O)c2ccccc21 here?
Answer: 50 °C

Question: For Cc1cc(C(=O)C(C#N)C(=O)Nc2ccc(F)cc2)c(C)n1C (stereo not given), which melting point is on record?
Answer: 171 to 172 °C

Question: With CCSc1cnc(Cl)cc1C#N as the compound, how does the melting point read?
Answer: 112 to 114 °C

Question: With FC1(F)c2ccccc2Cc2ccccc2C1(F)F as the compound, how does the melting point read?
Answer: 53.5 to 55 °C

Question: For COc1cc(OC)nc(Sc2c(NC(=O)C(F)(F)F)nc(C)n2C)n1, which melting point is on record?
Answer: 160 to 162 °C

Question: With CC1(C)OCCC2N1C(=O)C2(Sc1ccccc1)C1(O)CCSCC1 (stereo not given) as the compound, how does the melting point read?
Answer: 191 to 192 °C

Question: Which melting point does the source give for C=CCOc1ccc(C(O)CN2CCN(C(c3ccccc3)c3ccccc3)CC2)cc1 (stereo not given) here?
Answer: 100 °C

Question: For COc1cc2c(cc1O)CCCC(=O)N2Cc1cc(OC)c(OC)c(OC)c1, which melting point is on record?
Answer: 170 to 171 °C

Question: Which melting point does the source give for O=C1CC2(CC=CC2)CC(=O)O1 here?
Answer: 64 to 65 °C

Question: With COC(=O)c1ccc(C(=O)NS(=O)(=O)c2ccc(C(=O)NCCc3ccc(OC)cc3)cc2)cn1 as the compound, how does the melting point read?
Answer: 240 to 242 °C

Question: Which melting point does the source give for CCOC(=O)C1=C(C)NC(N=CN(C)C)=C(C(=O)OCC)C1c1cccc(Cl)c1 (stereo not given) here?
Answer: 150 °C

Question: With CC1=NC(C)(COc2ccc(NC(=O)c3cc(F)cc(N4CCOCC4)c3)c3ccccc23)CO1 (stereo not given) as the compound, how does the melting point read?
Answer: 203 to 206 °C

Question: For CCOc1cc(-c2cc(C(F)(F)F)n3ncc(C(=O)Nc4cc(S(=O)(=O)NC(C)(C)CO)sc4Cl)c3n2)ccc1C(F)(F)F, which melting point is on record?
Answer: 234 °C

Question: Which melting point does the source give for CC(=O)OC1CSC(Oc2ccc(-c3c(C)noc3C)nc2)C(OC(C)=O)C1OC(C)=O (stereo not given) here?
Answer: 172 °C

Question: Which melting point does the source give for O=C(c1cccs1)c1cnn2c(-c3cccc(-c4ccn(Cc5ccccn5)n4)c3)ccnc12 here?
Answer: 66 °C

Question: For COC(=O)c1cc(C(=O)c2c(C)c(OC)c3ccccn23)ccc1NC(=O)NCC(=O)N(C)C, which melting point is on record?
Answer: 228 °C

Question: With CC1(C)OC(c2ccc(S(N)(=O)=O)cc2F)=C(c2ccccc2)C1=O as the compound, how does the melting point read?
Answer: 79 to 81 °C

Question: With COc1ccc(NN=C(Sc2ccc(S(C)(=O)=O)cc2)C(C)=O)cc1 as the compound, how does the melting point read?
Answer: 145 to 153 °C

Question: With CCOC(=O)c1cnc(Nc2cccc(C(F)(F)F)c2)[nH]c1=O as the compound, how does the melting point read?
Answer: 229 to 230 °C

Question: With Cc1ccc(NC(=O)C#Cc2ccccc2)cc1 as the compound, how does the melting point read?
Answer: 139 to 141 °C

Question: Which melting point does the source give for CS(=O)c1ccc(COC(=O)N2CCN(CC3(C)Cn4cc([N+](=O)[O-])nc4O3)CC2)cc1 (stereo not given) here?
Answer: 117 to 121 °C

Question: Which melting point does the source give for O=c1c(-c2ccc(O)cc2)coc2ccccc12 here?
Answer: 237 to 238 °C

Question: With CC(C)c1cc(C(C)C)c(CC(=O)NS(=O)(=O)Oc2c(C(C)C)cc([N+](=O)[O-])cc2C(C)C)c(C(C)C)c1 as the compound, how does the melting point read?
Answer: 85 to 89 °C
